US20060199866A1, “Combination of desoxypeganine and mecamylanine for the treatment of alcohol abuse” (priority 2003, published 2006)

Legend:
female AA rats = experiment: Reduction of alcohol consumption and alcohol preference in alcohol-preferring AA rats (free choice between water and 10% v/v ethanol); format: in vivo, rat; settings: for Alcohol solution consumed: 10% aqueous ethanol
Text: The “AA” strain of rats, bred in Finland, has a genetically determined preference for alcohol, which means that even without pre-treatment with alcohol the animals, when given free choice, prefer alcohol-containing liquids, to alcohol-free liquids to satisfy their fluid requirement. This strain has therefore been used in numerous studies on the pharmacology of alcohol and is extremely well characterized.
Female AA rats (tested for alcohol preference and made available by the Public Health Institute in Helsinki) were housed individually and had free access to standard feed (Altromin 1324 granulate), the ambient temperature was 24±1° C. and the light-dark change was 12/12 hours (the dark period lasting from 6 p.m. to 6 a.m. Each cage contained two identical drinking bottles, of which one contained pure water and the other contained aqueous ethanol (10% v/v). During the 12-hour dark period the animals had access to the drinking bottles and during this period had free choice between the two solutions. To prevent the animals from becoming accustomed to a particular position in the cage, the positions of the bottles were changed daily. Prior to start of the tests, the animals were granted an adaptation phase until a largely constant alcohol and water consumption was ensured.
Deoxypeganine hydrochloride (called “DOP” in the following) was obtained from the Institute for the Pharmacology of Plants (Taschkent, Usbekistan) and supplied by the firm of LTS Lohmann Therapie-Systeme (Andemach, Germany) after checking for identity and purity. Mecamylamine was obtained as a commercial preparation from Sigma-Aldrich GmbH (Munich).
Treatment of the test animals always took place immediately prior to the start of the dark period. Mecamylamine was dissolved in 0.9% aqueous saline and a volume of 5 ml/kg body weight was administered by intraperitoneal injection. DOP was applied as an aqueous solution with a volume of 10 ml/kg by a probang.
In the case of combination treatments, this administration took place within a period of less than 10 minutes. Two treatment-free days were always interposed prior to and following the treatment days.
The parameters recorded were consumption of alcohol, consumption of water and consumption of feed (each in grams), as well as alcohol preference, calculated using the formula: [formula]
The target parameters were in each case traced during the 12 hours of the dark period following treatment, intermediate results were recorded after the first 4 hours and final results after 12 hours. Statistical evaluation of the test data was performed using the t-test for dependent values. The results in respect of consumption of alcohol and alcohol preference are summarized in FIGS. 1 and 2 as well as in Tables 1 and 2.

healthy probands = settings: administered two hours prior to consumption of alcoholic beverages; cited from earlier work
[1] = tested on: extracellular dopamine concentration in the nucleus accumbens; settings: nucleus accumbens of the rat; baseline dopamine release not impaired; cited from earlier work
[2] = cited from earlier work
monoamine oxidase A = target: T1, monoamine oxidase A (Homo sapiens, UniProt P21397); settings: cited from earlier work
T1 sequence (P21397 1-527): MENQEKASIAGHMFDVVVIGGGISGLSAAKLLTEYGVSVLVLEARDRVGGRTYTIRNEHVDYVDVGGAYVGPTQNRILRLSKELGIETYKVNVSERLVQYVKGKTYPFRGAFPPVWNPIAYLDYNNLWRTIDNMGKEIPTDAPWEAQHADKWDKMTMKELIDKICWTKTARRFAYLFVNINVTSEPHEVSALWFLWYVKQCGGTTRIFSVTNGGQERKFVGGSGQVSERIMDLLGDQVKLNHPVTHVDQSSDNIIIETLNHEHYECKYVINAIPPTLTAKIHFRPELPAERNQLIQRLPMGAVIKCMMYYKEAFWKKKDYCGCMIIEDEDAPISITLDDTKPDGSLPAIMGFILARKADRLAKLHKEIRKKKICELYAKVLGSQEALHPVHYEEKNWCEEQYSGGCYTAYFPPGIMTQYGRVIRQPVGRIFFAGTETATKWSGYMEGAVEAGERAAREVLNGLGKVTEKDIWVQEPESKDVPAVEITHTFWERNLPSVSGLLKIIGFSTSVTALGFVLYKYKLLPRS

[3] = tested on: neuronal nicotinic acetylcholine receptors (NACHRs); settings: in pharmacologically relevant concentrations; cited from earlier work
[4] = Trial 2, Mec 1 mg/kg i.p., After 4 hours
[5] = Trial 2, Mec 1 mg/kg i.p., After 8 hours (subsequent eight hours)
[6] = Trial 2, Mec 1 mg/kg i.p., Total (12 hours)
[7] = Trial 1, DOP 20 mg/kg p.o., After 4 hours
[8] = Trial 1, DOP 20 mg/kg p.o., After 8 hours (subsequent eight hours)
[9] = Trial 1, DOP 20 mg/kg p.o., Total (12 hours)
[10] = Trial 2, DOP 20 mg/kg p.o., After 4 hours
[11] = Trial 2, DOP 20 mg/kg p.o., After 8 hours (subsequent eight hours)
[12] = Trial 2, DOP 20 mg/kg p.o., Total (12 hours)

Work on `CNC1(C)C2CCC(C2)C1(C)C` (racemic) [Mec, reference compound] yielded an Alcohol solution consumed (female AA rats; [4]) of 5.4 ± 0.5 gram, an Alcohol solution consumed (female AA rats; [5]) of 10.1 ± 0.4 gram and an Alcohol solution consumed (female AA rats; [6]) of 15.5 ± 0.5 gram. For the same molecule, the “Effect on consumption of alcohol and alcohol preference” value (“Effect on consumption” for short) (female AA rats; Mecamylamine 1 mg/kg i.p. administered singly) was “no effect”, the “Effect on consumption” value (female AA rats; Mecamylamine 1 mg/kg i.p. combined with DOP 20 mg/kg p.o.) was “potentiated the effect of DOP on both parameters” and the Alcohol preference (female AA rats; [4]) was 85.3 ± 4.2%. The Alcohol preference (female AA rats; [5]) was 87.8 ± 3.1%, the Alcohol preference (female AA rats; [6]) was 86.3 ± 2.6% and the “Effect on consumption” value (female AA rats; mecamylamine 0.5 mg/kg i.p. combined with DOP 20 mg/kg p.o.) was “without effect with regard to alcohol”. For the same molecule, the “Effect on consumption” value (female AA rats; mecamylamine 0.75 mg/kg i.p. combined with DOP 20 mg/kg p.o.) was “without effect with regard to alcohol”, the “Effect on consumption” value (female AA rats; mecamylamine dosage increased to 1.5 mg/kg i.p., combined with DOP 20 mg/kg p.o.) was “potentiating effect could not be increased further” and the “Effect on the centrally stimulating psychotropic effect of alcohol” value (healthy probands) was “reduced the centrally stimulating psychotropic effect”. The “Blockade of alcohol-induced increase in extracellular dopamine concentration” value [1] was “completely blocks” and the Oral bioavailability [2] was about 100%.

`c1ccc2c(c1)CN1CCCC1=N2` [DOP, 1,2,3,9-tetrahydropyrrollo[2,1-b]chinazoline] showed an Alcohol solution consumed (female AA rats; [7]) of 5.2 ± 0.6 gram, an Alcohol solution consumed (female AA rats; [8]) of 10.2 ± 0.6 gram and an Alcohol solution consumed (female AA rats; [9]) of 15.4 ± 1.1 gram. For the same molecule, the Alcohol solution consumed (female AA rats; [10]) was 5.8 ± 0.6 gram, the Alcohol solution consumed (female AA rats; [11]) was 10.7 ± 0.5 gram and the Alcohol solution consumed (female AA rats; [12]) was 16.6 ± 0.6 gram. The “Effect on consumption” value (female AA rats; DOP 20 mg/kg p.o., preferably within the first 4 hours after administration) was “lowered the consumption of alcohol and alcohol preference”, the Alcohol preference (female AA rats; [7]) was 57.4 ± 7.1% and the Alcohol preference (female AA rats; [8]) was 82.0 ± 4.0%. The Alcohol preference (female AA rats; [9]) was 70.5 ± 4.5%, the Alcohol preference (female AA rats; [10]) was 55.6 ± 7.6% and the Alcohol preference (female AA rats; [11]) was 88.0 ± 2.1%. For the same molecule, the Alcohol preference (female AA rats; [12]) was 72.7 ± 4.3%, the “Inhibition of monoamine oxidase A” value (monoamine oxidase A) was “inhibits monoamine oxidase A” and the “Binding to NACHRs” value [3] was “does not bind to NACHRs”.

For `O=C1CC[C@@]2(O)[C@H]3Cc4ccc(O)c5c4[C@@]2(CCN3CC2CC2)[C@H]1O5` [naltrexone], the Oral bioavailability [2] is given as “approx. 5%”.
